The values below are quoted from earlier work in patent US6399104B1, “Pharmaceutical compositions” (AstraZeneca UK Limited, priority 1997, dated 2002).

The conditions of this data set: as disclosed in U.S. Pat. No. 5,319,097.

For the compound `COc1cc(C(=O)NS(=O)(=O)c2ccccc2C)ccc1Cc1cn(C)c2ccc(NC(=O)OC3CCCC3)cc12` [Form A, N-[4-[5-(cyclopentyloxycarbonyl)amino-1-methylindol-3-ylmethyl]-3-methoxybenzoyl]-2-methylbenzene], the bioavailability entry is “good bioavailability”.
